As a reminder, the melting point is the temperature, or range, at which the solid turns liquid.

The source of these data is patent US7723364B2, “N-[2-(2-pyridinyl) ethyl]benzamide compounds and their use as fungicides” (Bayer Cropscience SA, priority 2003, dated 2010).

The subject of one series is Alternaria brassicae. Description: In vivo test on Alternaria brassicae (leaf spot of crucifers) on radish plants. The following applies: Alternaria brassicae; dose of 330 ppm; radish plants sprayed 24 hours before contamination; grading 6 to 7 days after contamination vs control plants; read-out: good (at least 50%) or total protection. The procedure:
In Vivo Test on Alternaria brassicae (Leaf Spot of Crucifers)
(§1) The active ingredient tested is prepared by potter homogenisation in a concentrated suspension type formulation at 100 g/l. This suspension is then diluted with water to obtain the desired active material concentration.
Radish plants (Pernot variety) in starter cups, sown on a 50/50 peat soil-pozzolana substrate and grown at 18-20° C., are treated at the cotyledon stage by spraying with the aqueous suspension described above.
(§2) Plants, used as controls, are treated with an aqueous solution not containing the active material.
After 24 hours, the plants are contaminated by spraying them with an aqueous suspension of Alternaria brassicae spores (40,000 spores per cm^3). The spores are collected from a 12 to 13 days-old culture.
The contaminated radish plants are incubated for 6-7 days at about 18° C., under a humid atmosphere.
Grading is carried out 6 to 7 days after the contamination, in comparison with the control plants.

Series [1] relates to Erysiphe graminis f. sp. tritici. Nature of the series: In vivo test on Erysiphe graminis f. sp. tritici (powdery mildew of wheat). The following applies: Blumeria graminis; dose of 330 ppm; wheat plants sprayed 24 hours before contamination; grading 7 to 14 days after contamination vs control plants; read-out: good (at least 50%) or total protection. The procedure:
In Vivo Test on Erysiphe graminis f. sp. tritici (Powdery Mildew of Wheat)
as §1
Wheat plants (Audace variety) in starter cups, sown on 50/50 peat soil-pozzolana substrate and grown at 12° C., are treated at the 1-leaf stage (10 cm tall) by spraying with the aqueous suspension described above.
as §2
After 24 hours, the plants are contaminated by dusting them with Erysiphe graminis f. sp. tritici spores, the dusting being carried out using diseased plants.
Grading is carried out 7 to 14 days after the contamination, in comparison with the control plants.
Under these conditions, good (at least 50%) or total protection is observed at a dose of 330 ppm with the following compounds: 1, 3, 4, 5, 6, 8, 9, 10, 11, 12, 13, 18, 38, 50, 43 and 45.

For another series, the system named is Botrytis cinerea. Description: In vivo test on Botrytis cinerea (cucumber grey mould). The following applies: Botrytis cinerea; dose of 330 ppm; cucumber plants sprayed 24 hours before contamination; grading 5/7 days after contamination vs control plants; read-out: good (at least 50%) or total protection. The procedure: In Vivo Test on Botrytis cinerea (Cucumber Grey Mould)
as §1
Cucumber plants (Marketer variety) in starter cups, sown on a 50/50 peat soil-pozzolana substrate and grown at 18-20° C., are treated at the cotyledon Z11 stage by spraying with the aqueous suspension described above. Plants, used as controls, are treated with an aqueous solution not containing the active material.
After 24 hours, the plants are contaminated by depositing drops of an aqueous suspension of Botrytis cinerea spores (150,000 spores per ml) on upper surface of the leaves. The spores are collected from a 15-day-old culture and are suspended in a nutrient solution composed of:
The contaminated cucumber plants are settled for 5/7 days in a climatic room at 15-11° C. (day/night) and at 80% relative humidity.
Grading is carried out 5/7 days after the contamination, in comparison with the control plants. Under these conditions, good (at least 50%) or total protection is observed at a dose of 330 ppm with the following compounds: 1, 2, 3, 4, 5, 6, 9, 10, 13, 18, 21, 22, 23, 25, 26, 27, 28, 29, 32, 34, 35, 38, 40, 43, 44, 45, 46, 47, 50, 51, 52, 53, 57 and 62.

For another series, the system named is Pyrenophora teres. Nature of the series: In vivo test on Pyrenophora teres (barley net blotch). The following applies: 288 h, dose of 330 ppm, barley plants sprayed 24 hours before contamination, grading 12 days after contamination vs control plants, read-out: good (at least 50%) or total protection. The procedure:
In Vivo Test on Pyrenophora teres (Barley Net Blotch)
as §1
Barley plants (Express variety) in starter cups, sown on a 50/50 peat soil-pozzolana substrate and grown at 12° C., are treated at the 1-leaf stage (10 cm tall) by spraying with the aqueous suspension described above. Plants, used as controls, are treated with an aqueous solution not containing the active material.
After 24 hours, the plants are contaminated by spraying them with an aqueous suspension of Pyrenophora teres spores (12,000 spores per ml). The spores are collected from a 12-day-old culture. The contaminated barley plants are incubated for 24 hours at about 20° C. and at 100% relative humidity, and then for 12 days at 80% relative humidity.

Compound `O=C(NCCc1ncc(Cl)cc1Cl)c1ccccc1C(F)(F)F` [Compound 1, N-[2-(3,5-dichloro-2-pyridinyl)ethyl]-2-(trifluoromethyl)benzamide] yielded a melting point of 118 °C. Further, the pest or weed control at 330 ppm in the series on Alternaria brassicae was not below 50%. Also, the pest or weed control at 330 ppm in series [1] is not below 50%. In the series on Botrytis cinerea, the pest or weed control at 330 ppm is not below 50%. For the same compound, the pest or weed control at 330 ppm in the series on Pyrenophora teres is not below 50%.

As to `Cc1ccccc1C(=O)NCCc1ncc(Cl)cc1Cl` [Compound 3], the pest or weed control at 330 ppm (in the series with Alternaria brassicae; in series [1]; in the series with Botrytis cinerea; in the series on Pyrenophora teres) was not below 50% in each case.

For the compound `O=C(NCCc1ncc(Cl)cc1Cl)c1ccccc1I` [Compound 5, N-[2-(3,5-dichloro-2-pyridinyl)ethyl]-2-(iodo)benzamide], the melting point turned out to be 133 °C. The pest or weed control at 330 ppm with Alternaria brassicae is not below 50%. Moreover, the pest or weed control at 330 ppm in series [1] is not below 50%. Further, in the series on Botrytis cinerea, the pest or weed control at 330 ppm was not below 50%. In the series with Pyrenophora teres, the pest or weed control at 330 ppm was not below 50%.

As to `O=C(NCCc1ncccc1Cl)c1ccccc1C(F)(F)F` [Compound 6, N-[2-(3-chloro-2-pyridinyl)ethyl]-2-(trifluoromethyl)benzamide], the pest or weed control at 330 ppm (in the series on Alternaria brassicae; in series [1]; with Botrytis cinerea) was not below 50% each time.

For the compound `Cc1ccc(CCNC(=O)c2ccccc2C(F)(F)F)nc1` [Compound 9], the pest or weed control at 330 ppm (in the series with Alternaria brassicae; in series [1]; with Botrytis cinerea; with Pyrenophora teres) was not below 50% each time.

For `O=C(NCCc1ncc(Cl)cc1F)c1ccccc1C(F)(F)F` [Compound 10], the pest or weed control at 330 ppm (in the series on Alternaria brassicae; in series [1]; in the series on Botrytis cinerea; in the series on Pyrenophora teres) was not below 50% each time.

Consider `O=C(NCCc1nc(F)c(F)cc1F)c1ccccc1C(F)(F)F` [Compound 12], for which the pest or weed control at 330 ppm (in the series on Alternaria brassicae; in series [1]; with Pyrenophora teres) was not below 50% throughout.

Turning to `O=C(NCCc1nc(F)ccc1Cl)c1ccccc1C(F)(F)F` [Compound 13], the pest or weed control at 330 ppm (in the series with Alternaria brassicae; in series [1]; with Botrytis cinerea; with Pyrenophora teres) was not below 50% throughout.

In the case of `Cc1cc(Br)cnc1CCNC(=O)c1ccccc1C(F)(F)F` [Compound 18], the pest or weed control at 330 ppm (in the series with Alternaria brassicae; in series [1]; with Botrytis cinerea; with Pyrenophora teres) was not below 50% throughout.

Take `O=C(NCCc1ncc(Cl)cc1Br)c1ccccc1C(F)(F)F` [Compound 38]: the pest or weed control at 330 ppm (with Alternaria brassicae; in series [1]; in the series on Botrytis cinerea; in the series on Pyrenophora teres) was not below 50% throughout.

As to `Cc1c(F)c(F)nc(CCNC(=O)c2ccccc2I)c1F` [Compound 43], the pest or weed control at 330 ppm (in the series on Alternaria brassicae; in series [1]; in the series on Botrytis cinerea; in the series with Pyrenophora teres) was not below 50% throughout.

Regarding `O=C(NCCc1nc(F)c(F)cc1F)c1ccccc1I` [Compound 45], the pest or weed control at 330 ppm (with Alternaria brassicae; in series [1]; in the series on Botrytis cinerea; in the series with Pyrenophora teres) was not below 50% throughout.
